One data set deals with Lipopolysaccharide (LPS). As to the kind of experiment: Binding affinity to Escherichia coli O55:B5 LPS assessed as dissociation constant by ITC analysis. The format is subcellular. On the technique in general: ITC needs no label: the signal is the heat of the interaction.
Data set [1] concerns Escherichia coli. As to the kind of experiment: Antibacterial activity against wild-type Escherichia coli ATCC 25922 assessed as inhibition of bacterial growth incubated for 18 hrs. The format is functional. Conditions: read-out: MIC100; call rule not given here.
Data set [2] can be described thus: Cytotoxicity against human HepG2 cells incubated for 40 hrs by celltiter-glo luminescent cell viability assay. The format is toxicity, cell-based.
The nature of data set [3]: Binding affinity to gram negative bacterial lipid II assessed as dissociation constant by ITC analysis. Further details: species or system Bacteria.
Data set [4] relates to Klebsiella pneumoniae. As to the kind of experiment: Antibacterial activity against wild-type Klebsiella pneumoniae ATCC 13883 assessed as inhibition of bacterial growth incubated for 18 hrs. The format is functional. Conditions: read-out: MIC100.
Data set [5] is described as follows: Hemolytic activity in human red blood cells at 400 ug/ml incubated for 45 mins by spectrophotometric analysis relative to control. The note with it: red blood cells (erythrocytes), at 400 µg/mL, read-out: Activity. It is filed as toxicity, cell-based, Erythrocyte.
The nature of data set [6]: Drug uptake in Escherichia coli ATCC 25922 at 10 uM incubated for 10 mins by LC-MS/MS analysis. The format is ADME.
The nature of data set [7]: Drug localization in cytoplasm of Escherichia coli ATCC 25922 at 10 uM incubated for 10 mins by LC-MS/MS analysis. It is filed as ADME, subcellular.
The subject of data set [8] is Klebsiella pneumoniae. In words: Antibacterial activity against Klebsiella pneumoniae ATCC 43816 assessed as inhibition of bacterial growth incubated for 18 hrs. The format is functional. Conditions: read-out: MIC100.
The next data set relates to Serratia marcescens. In words: Antibacterial activity against intrinsically colistin resistant Serratia marcescens ATCC 13880 assessed as inhibition of bacterial growth incubated for 18 hrs. The format is functional. The note with it: read-out: MIC100.
The next data set deals with Pseudomonas aeruginosa. As to the kind of experiment: Antibacterial activity against efflux-deficient Pseudomonas aeruginosa PAO750 assessed as inhibition of bacterial growth incubated for 18 hrs. It is filed as functional. Conditions: read-out: MIC100.
Data set [9] relates to Escherichia coli. As to the kind of experiment: Antibacterial activity against Escherichia coli ATCC BAA-2469 expressing NDM-1 assessed as inhibition of bacterial growth incubated for 18 hrs. Conditions: read-out: MIC100. The format is functional.
Another data set relates to Citrobacter freundii. As to the kind of experiment: Antibacterial activity against Citrobacter freundii ATCC 8090 assessed as inhibition of bacterial growth incubated for 18 hrs. The note with it: read-out: MIC100. The format is functional.
Data set [10] has as its system Klebsiella pneumoniae. In words: Antibacterial activity against Klebsiella pneumoniae ATCC BAA-2470 expressing NDM-1 assessed as inhibition of bacterial growth incubated for 18 hrs. The format is functional. Conditions: read-out: MIC100.
The next data set relates to Morganella morganii. As to the kind of experiment: Antibacterial activity against Morganella morganii ATCC 25830 assessed as inhibition of bacterial growth incubated for 18 hrs. Conditions: read-out: MIC100. The format is functional.
A further data set has as its system Klebsiella aerogenes. As to the kind of experiment: Antibacterial activity against Enterobacter aerogenes ATCC 13048 assessed as inhibition of bacterial growth incubated for 18 hrs. It is filed as functional. The note with it: read-out: MIC100.
For data set [11], the system named is Escherichia coli. In words: Antibacterial activity against colistin resistant Escherichia coli NCTC 13846 harboring mcr-1 gene assessed as inhibition of bacterial growth incubated for 18 hrs. The format is functional. Conditions: read-out: MIC100.
Another data set concerns Proteus mirabilis. In words: Antibacterial activity against Proteus mirabilis ATCC 25933 assessed as inhibition of bacterial growth incubated for 18 hrs. It is filed as functional. The note with it: read-out: MIC100.
The subject of data set [12] is Escherichia coli. In words: Antibacterial activity against Escherichia coli Swiss 9 harboring mcr-1 gene assessed as inhibition of bacterial growth incubated for 18 hrs. The note with it: read-out: MIC100. It is filed as functional.
Data set [13] relates to Escherichia coli. In words: Antibacterial activity against Escherichia coli Swiss 7 harboring mcr-1 gene assessed as inhibition of bacterial growth incubated for 18 hrs. It is filed as functional. The note with it: read-out: MIC100.
The subject of the next data set is Staphylococcus aureus. In words: Antibacterial activity against wild type Staphylococcus aureus USA300 assessed as inhibition of bacterial growth incubated for 18 hrs. Conditions: read-out: MIC100. The format is functional.
In a further data set the test system is Salmonella typhimurium. In words: Antibacterial activity against Salmonella typhimurium ATCC 13311 assessed as inhibition of bacterial growth incubated for 18 hrs. It is filed as functional, Salmonella enterica subsp. enterica serovar Typhimurium. The note with it: Salmonella enterica, read-out: MIC100.
A further data set has as its system Providencia stuartii. As to the kind of experiment: Antibacterial activity against Providencia stuartii ATCC 25826 assessed as inhibition of bacterial growth incubated for 18 hrs. The format is functional. The note with it: read-out: MIC100.

Structures are written as SMILES. Converted amounts (≈) assume the structure as drawn.

The text below walks through data of ChEMBL document CHEMBL5518181, “Studies of antibacterial activity (in vitro and in vivo) and mode of action for des-acyl tridecaptins (DATs)” (Eur J Med Chem, 2024).

In general, Kd refers to the equilibrium constant for the complex coming apart. A word on the IC50: it is the concentration that inhibits the measured activity by half. High values mean weaker potency, low ones greater potency. On to `CC[C@H](C)[C@H](N)C(=O)N[C@@H](C(=O)N[C@H](CCN)C(=O)NCC(=O)N[C@H](CO)C(=O)N[C@H](Cc1c[nH]c2ccccc12)C(=O)N[C@@H](CO)C(=O)N[C@@H](CCN)C(=O)N[C@H](CCN)C(=O)N[C@@H](Cc1ccccc1)C(=O)N[C@@H](CCC(=O)O)C(=O)N[C@H](C(=O)N[C@@H](C(=O)N[C@@H](C)C(=O)O)[C@@H](C)CC)C(C)C)C(C)C`, for which the results for the Kd (with Lipopolysaccharide (LPS); in data set [3]) were 0.088 µM and 4.8 µM, respectively. For the same molecule, the MIC in the data set with Escherichia coli [1] and in the data set with Klebsiella pneumoniae [4] was 1 µg/mL (≈ 0.663 µM) in each case. In data set [2], half-maximal inhibition (IC50 at 40 h) was put at 20 µg/mL (≈ 13.3 µM). The hemolysis at 0.75 h, 400 ug/ml in [5] was found to be 56.9%.
In the case of `CC[C@H](C)[C@@H](NC(=O)[C@@H](NC(=O)[C@H](CCC(=O)O)NC(=O)[C@H](Cc1c[nH]c2ccccc12)NC(=O)[C@@H](CCN)NC(=O)[C@H](CCN)NC(=O)[C@H](CO)NC(=O)[C@@H](Cc1c[nH]c2ccccc12)NC(=O)[C@@H](CO)NC(=O)CNC(=O)[C@@H](CCN)NC(=O)[C@H](NC(=O)[C@H](C)N)C(C)C)C(C)C)C(=O)N[C@@H](C)C(=O)O`, the Kd came to 14.8 µM with Lipopolysaccharide (LPS) and 5.2 µM in data set [3]. Also, the MIC in the data set on Escherichia coli [1] and with Klebsiella pneumoniae [4] was 1 µg/mL (≈ 0.665 µM) throughout. Moreover, in data set [2], inhibition was half-maximal at 151 µg/mL (≈ 100 µM) (IC50 at 40 h). The hemolysis at 0.75 h, 400 ug/ml in data set [5] worked out at 41.7%.
As for `CC[C@H](C)[C@@H](NC(=O)[C@@H](NC(=O)[C@H](CCC(=O)O)NC(=O)[C@H](Cc1ccccc1)NC(=O)[C@@H](CCN)NC(=O)[C@H](CCN)NC(=O)[C@H](CO)NC(=O)[C@@H](Cc1c[nH]c2ccccc12)NC(=O)[C@@H](CO)NC(=O)CNC(=O)[C@@H](CCN)NC(=O)[C@H](N)C(C)C)C(C)(C)C)C(=O)N[C@@H](C)C(=O)O`, the Drug uptake result in data set [6] and in data set [7] was “Active” throughout. Moreover, the MIC in the data set on Escherichia coli [1] is 16 µg/mL (≈ 11.4 µM); in the data set on Klebsiella pneumoniae [4], 4 µg/mL (≈ 2.84 µM). In addition, the hemolysis at 0.75 h, 400 ug/ml in data set [5] amounted to 86.3%.
Regarding `O=C(O)c1cn(C2CC2)c2cc(N3CCNCC3)c(F)cc2c1=O` [CIPROFLOXACIN], the MIC is 0.003 µg/mL (≈ 0.00905 µM) with Klebsiella pneumoniae [8]; 0.032 µg/mL (≈ 0.0966 µM) with Serratia marcescens; 0.004 µg/mL (≈ 0.0121 µM) with Pseudomonas aeruginosa; over 1 µg/mL with Escherichia coli [9]; 0.004 µg/mL (≈ 0.0121 µM) in the data set with Citrobacter freundii; over 1 µg/mL in the data set with Klebsiella pneumoniae [10]. Further, the MIC in the data set with Morganella morganii was 0.002 µg/mL (≈ 0.00604 µM); with Klebsiella aerogenes, 0.008 µg/mL (≈ 0.0241 µM); in the data set with Escherichia coli [11], over 1 µg/mL; in the data set with Proteus mirabilis, 0.016 µg/mL (≈ 0.0483 µM); in the data set with Klebsiella pneumoniae [4] it was 0.032 µg/mL (≈ 0.0966 µM); in the data set with Escherichia coli [12], over 1 µg/mL. The MIC in the data set on Escherichia coli [13] was over 1 µg/mL; in the data set on Staphylococcus aureus, 1 µg/mL (≈ 3.02 µM); in the data set with Salmonella typhimurium, 0.004 µg/mL (≈ 0.0121 µM); with Providencia stuartii, 0.016 µg/mL (≈ 0.0483 µM). The IC50 at 40 h in [2] is over 170 µg/mL.
